This note sets out measurements from US20230265116A1, “DEGRADATION OF (EGFR) BY CONJUGATION OF EGFR INHIBITORS WITH E3 LIGASE LIGAND AND METHODS OF USE” (BEIGENE, LTD., priority 2020, published 2023).

Common to all, as to format: cell-based
For assay [1], the target named is T1, EGFR L858R/T790M/C797S (BaF3-LTC cells) (Homo sapiens, UniProt P00533, C797S/L858R/T790M).
T1 construct: expressed in transfected cells; host or cells: BaF3
Put plainly: EGFR degradation HTRF assay, BaF3-LTC cells. Particulars: BaF3-LTC cells; for DC50: EGFR degradation, IC50 (DC50) from curve fit, read-out: DC50(nM) BaF3-LTC; for Dmax: read-out: Dmax (%) BaF3-LTC. In outline:
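EGFR remaining after a 16 h, 37 °C exposure (8 doses, 5-fold steps from 10 uM final, 0.2% DMSO) was quantified by HTRF antibodies in cell lysate. Percent inhibition relative to DMSO control was fitted by four-parameter logistic to give DC50; Dmax denotes maximal degradation.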

In assay [2] the test system is EGFR Del19/T790M/C797S (H1975-clone #28). Kind of assay: EGFR degradation HTRF assay, H1975-clone #28 DTC cells. Particulars: H1975 # 28 DTC cells; for DC50: EGFR degradation, IC50 (DC50) from curve fit, read-out: DC50(nM) H1975 # 28 DTC; for Dmax (%) H1975 # 28 DTC: maximum percentage of inhibition (degradation). In outline: (§1)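 Cells were dosed on day 2 with an 8-point, 5-fold dilution series starting at 10 uM final and incubated 16h at 37° C. After lysis for 1 hour, HTRF antibodies were added overnight at room temperature and the plate was read at 665/620 nm. Degradation was normalised to DMSO wells and fitted for DC50 and Dmax.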

Assay [3] addresses T2, EGFR L858R/C797S (BaF3 LC cells) (Homo sapiens, UniProt P00533, C797S/L858R).
T2 construct: expressed in transfected cells; host or cells: BaF3
Put plainly: EGFR degradation HTRF assay, BaF3 LC cells. Particulars: BaF3 LC, 16h treatment; for Dmax: read-out: BaF3 LC Dmax (%); for DC50: read-out: BaF3 LC DC50.

In assay [4] the test system is EGFR Del19/C797S (H1975-clone #23). Kind of assay: EGFR degradation HTRF assay, H1975-clone #23 DC cells. Conditions: 16h treatment; for H1975 #23 DC Dmax (%): maximum percentage of degradation; for DC50: H1975 #23 DC, read-out: H1975 #23 DC DC50. In outline:
as §1

[5] abbreviates: maximum percentage of inhibition (degradation).
Where [6] appears, read: maximum percentage of degradation.

Bounds are passed on as bounds.

T1 sequence (P00533 25-1210 T790M/C797S/L858R): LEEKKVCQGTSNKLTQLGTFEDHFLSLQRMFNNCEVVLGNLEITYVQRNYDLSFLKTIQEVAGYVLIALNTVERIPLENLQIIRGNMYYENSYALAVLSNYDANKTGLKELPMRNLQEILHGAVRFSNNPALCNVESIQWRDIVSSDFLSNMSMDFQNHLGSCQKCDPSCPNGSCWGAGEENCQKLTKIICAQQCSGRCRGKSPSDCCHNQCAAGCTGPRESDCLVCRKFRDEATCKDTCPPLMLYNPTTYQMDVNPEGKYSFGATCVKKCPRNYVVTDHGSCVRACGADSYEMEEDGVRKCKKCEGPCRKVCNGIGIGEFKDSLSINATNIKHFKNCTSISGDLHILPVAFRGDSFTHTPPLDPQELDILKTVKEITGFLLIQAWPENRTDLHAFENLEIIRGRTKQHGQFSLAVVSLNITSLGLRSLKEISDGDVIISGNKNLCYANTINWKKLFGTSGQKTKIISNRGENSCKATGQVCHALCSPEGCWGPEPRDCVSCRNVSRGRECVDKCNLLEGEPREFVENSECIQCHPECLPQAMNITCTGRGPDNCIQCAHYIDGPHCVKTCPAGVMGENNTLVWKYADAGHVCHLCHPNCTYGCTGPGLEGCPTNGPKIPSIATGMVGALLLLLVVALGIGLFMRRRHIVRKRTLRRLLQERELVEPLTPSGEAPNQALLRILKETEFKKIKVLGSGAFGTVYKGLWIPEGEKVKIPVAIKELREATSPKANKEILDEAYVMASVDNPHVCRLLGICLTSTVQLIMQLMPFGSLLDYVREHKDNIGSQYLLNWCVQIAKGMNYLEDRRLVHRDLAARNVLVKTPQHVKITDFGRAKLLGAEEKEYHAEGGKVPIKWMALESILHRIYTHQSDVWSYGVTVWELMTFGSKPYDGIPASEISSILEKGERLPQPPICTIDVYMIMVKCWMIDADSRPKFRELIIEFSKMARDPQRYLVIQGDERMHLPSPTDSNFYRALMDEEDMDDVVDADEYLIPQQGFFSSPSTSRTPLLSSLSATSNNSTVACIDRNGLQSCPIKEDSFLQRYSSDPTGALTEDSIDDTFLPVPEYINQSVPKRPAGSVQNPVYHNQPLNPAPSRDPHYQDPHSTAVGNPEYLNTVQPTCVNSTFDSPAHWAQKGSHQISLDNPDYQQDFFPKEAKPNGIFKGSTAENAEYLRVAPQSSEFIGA
T2 sequence (P00533 25-1210 C797S/L858R): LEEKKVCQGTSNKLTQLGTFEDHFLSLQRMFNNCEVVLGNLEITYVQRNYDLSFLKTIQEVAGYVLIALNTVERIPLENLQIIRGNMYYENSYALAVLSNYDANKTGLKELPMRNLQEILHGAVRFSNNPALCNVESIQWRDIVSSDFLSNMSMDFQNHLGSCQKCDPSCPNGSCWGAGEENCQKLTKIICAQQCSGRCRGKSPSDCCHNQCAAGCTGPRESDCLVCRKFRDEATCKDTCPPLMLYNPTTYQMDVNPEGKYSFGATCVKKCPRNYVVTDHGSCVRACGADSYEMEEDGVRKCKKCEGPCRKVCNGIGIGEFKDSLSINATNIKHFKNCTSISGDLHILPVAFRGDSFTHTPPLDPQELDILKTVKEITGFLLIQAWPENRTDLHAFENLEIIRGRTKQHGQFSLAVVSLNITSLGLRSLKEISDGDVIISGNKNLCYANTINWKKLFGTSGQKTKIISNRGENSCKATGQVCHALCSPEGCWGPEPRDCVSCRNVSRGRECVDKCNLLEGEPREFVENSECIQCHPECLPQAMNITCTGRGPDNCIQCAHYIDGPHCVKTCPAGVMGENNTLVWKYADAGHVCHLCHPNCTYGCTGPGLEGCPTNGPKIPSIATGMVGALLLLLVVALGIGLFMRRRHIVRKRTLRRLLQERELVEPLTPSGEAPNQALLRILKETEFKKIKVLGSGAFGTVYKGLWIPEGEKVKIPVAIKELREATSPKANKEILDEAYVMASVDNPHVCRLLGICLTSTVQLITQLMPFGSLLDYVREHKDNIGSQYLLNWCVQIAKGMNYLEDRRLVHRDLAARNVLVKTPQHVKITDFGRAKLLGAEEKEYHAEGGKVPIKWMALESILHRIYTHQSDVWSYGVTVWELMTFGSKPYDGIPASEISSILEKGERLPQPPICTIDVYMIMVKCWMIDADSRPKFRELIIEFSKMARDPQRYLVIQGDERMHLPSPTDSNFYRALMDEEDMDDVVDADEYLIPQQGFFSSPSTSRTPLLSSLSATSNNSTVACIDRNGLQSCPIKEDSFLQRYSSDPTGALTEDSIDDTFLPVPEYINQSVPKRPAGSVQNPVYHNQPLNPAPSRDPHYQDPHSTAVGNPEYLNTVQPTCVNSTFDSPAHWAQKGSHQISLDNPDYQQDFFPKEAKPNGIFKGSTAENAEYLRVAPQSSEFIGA

Turning to `CCOc1cc(N2CCC(N3CCN(CCc4ccc(C)c5c4oc(=O)n5C4CCC(=O)NC4=O)CC3)CC2)c(CC)cc1Nc1ncc(Br)c(Nc2ccc3nc(CC)ccc3c2P(C)(C)=O)n1` (stereo not drawn) [Example 470, 3-(7-(2-(4-(1-(4-((5-bromo-4-((5-(dimethylphosphoryl)-2-ethylquinolin-6-yl)amino)pyrimidin-2-yl)amino)-5-ethoxy-2-ethylphenyl)piperidin-4-yl)piperazin-1-yl)ethyl)-4-methyl-2-oxobenzo[d]oxazol-3(2H)-yl)piperidine-2,6-dione], the 50% degradation concentration (DC50) is 418 nM in assay [1], above 10000 nM in assay [2], 300 nM in assay [3] and 9540 nM in assay [4]. Also, the Dmax in assay [1] (setting [5]) came to 80.5%; in assay [3] (setting [6]), 86.6%. Also, the “Dmax (%) H1975 # 28 DTC” value in assay [2] is 39.87%. Also, the “H1975 #23 DC Dmax (%)” value in assay [4] came to 64.89%.
On to `CCOc1cc(N2CCC(N3CCN(CCc4c(F)ccc5c4n(C)c(=O)n5C4CCC(=O)NC4=O)CC3)CC2)c(CC)cc1Nc1ncc(Br)c(Nc2ccc3nc(CC)ccc3c2P(C)(C)=O)n1` (stereo not drawn) [Example 503, 3-(4-(2-(4-(1-(4-((5-bromo-4-((5-(dimethylphosphoryl)-2-ethylquinolin-6-yl)amino)pyrimidin-2-yl)amino)-5-ethoxy-2-ethylphenyl)piperidin-4-yl)piperazin-1-yl)ethyl)-5-fluoro-3-methyl-2-oxo-2,3-dihydro-1H-benzo[d]imidazol-1-yl)piperidine-2,6-dione], for which the half-maximal degradation concentration (DC50) in assay [1] was found to be 7 nM; in assay [2], 1.34 nM; in assay [3], 7.53 nM; in assay [4] it was 1.57 nM. Further, the “Dmax (%) H1975 # 28 DTC” value in assay [2] was 79.81%. In assay [4], the “H1975 #23 DC Dmax (%)” value is given as 81.03%.
In the case of `CCOc1cc(N2CCC(N3CCN(CC4CN(c5cccc6c5oc(=O)n6C5CCC(=O)NC5=O)C4)CC3)CC2)c(CC)cc1Nc1ncc(Br)c(Nc2ccc3nc(CC)ccc3c2P(C)(C)=O)n1` (stereo not drawn) [Example 497], the DC50 was 6.27 nM in assay [1], 1.01 nM in assay [2], 5.19 nM in assay [3] and 3.32 nM in assay [4]. The Dmax came out at 86.6% in assay [1] (setting [5]) and 93.3% in assay [3] (setting [6]). Also, the “Dmax (%) H1975 # 28 DTC” value in assay [2] is 80.94%. The “H1975 #23 DC Dmax (%)” value in assay [4] turned out to be 74.87%.
For `CCc1cc(Nc2ncc(Br)c(Nc3ccc4c(=O)n(CC)ncc4c3P(C)(C)=O)n2)c(OC)cc1N1CCC(N2CCN(CCc3cc(F)c([C@H]4CCC(=O)NC4=O)c(F)c3)CC2)CC1` [Example 753, (R)-3-(4-(2-(4-(1-(4-((5-bromo-4-((5-(dimethylphosphoryl)-2-ethyl-1-oxo-1,2-dihydrophthalazin-6-yl)amino)pyrimidin-2-yl)amino)-2-ethyl-5-methoxyphenyl)piperidin-4-yl)piperazin-1-yl)ethyl)-2,6-difluorophenyl)piperidine-2,6-dione], the DC50 worked out at 83.7 nM in assay [1], 6.28 nM in assay [2], 20.1 nM in assay [3] and 2.43 nM in assay [4]. Further, in assay [2], the “Dmax (%) H1975 # 28 DTC” value worked out at 87.49%. Also, the “H1975 #23 DC Dmax (%)” value in assay [4] is on record as 78.45%.
As to `CCc1cc(Nc2ncc(Br)c(Nc3ccc4nc(C)ccc4c3P(C)(C)=O)n2)c(OC)cc1N1CCC(N2CCN(C(=O)C3CN(c4cccc5c4C(C)(C)C(=O)N5C4CCC(=O)NC4=O)C3)CC2)CC1` (stereo not drawn) [Example 507], the half-maximal degradation concentration (DC50) stood at 4.3 nM in assay [1], 0.5 nM in assay [2], 8.97 nM in assay [3] and 2.41 nM in assay [4]. The greatest degradation seen (Dmax) in assay [1] (setting [5]) came to 89.8%; in assay [3] (setting [6]), 94%. For the same molecule, the “Dmax (%) H1975 # 28 DTC” value in assay [2] came to 68.8%. Further, the “H1975 #23 DC Dmax (%)” value in assay [4] was determined as 52.12%.
On to `CCc1cc(Nc2ncc(Br)c(Nc3ccc4c(=O)n(C)ncc4c3P(C)(C)=O)n2)c(OC)cc1N1CCC(N2CCN(CCc3cccc4c3C3(CC3)C(=O)N4C3CCC(=O)NC3=O)CC2)CC1` (stereo not drawn) [Example 756, 3-(4′-(2-(4-(1-(4-((5-bromo-4-((5-(dimethylphosphoryl)-2-methyl-1-oxo-1,2-dihydrophthalazin-6-yl)amino)pyrimidin-2-yl)amino)-2-ethyl-5-methoxyphenyl)piperidin-4-yl)piperazin-1-yl)ethyl)-2′-oxospiro[cyclopropane-1,3′-indolin]-1′-yl)piperidine-2,6-dione], for which the DC50 in assay [1] turned out to be 2.31 nM; in assay [2] it was 0.608 nM; in assay [3], 10.1 nM; in assay [4] it was 1.69 nM. In addition, the “Dmax (%) H1975 # 28 DTC” value in assay [2] is listed as 80.03%. The “H1975 #23 DC Dmax (%)” value in assay [4] is given as 73.8%.
On to `CCOc1cc(N2CCC(N3CCN(CCc4cccc5c4n(CC)c(=O)n5C4CCC(=O)NC4=O)CC3)CC2)c(CC)cc1Nc1ncc(Br)c(Nc2cc(F)c3nc(CC)ccc3c2P(C)(C)=O)n1` (stereo not drawn) [Example 643, 3-(4-(2-(4-(1-(4-((5-bromo-4-((5-(dimethylphosphoryl)-2-ethyl-8-fluoroquinolin-6-yl)amino)pyrimidin-2-yl)amino)-5-ethoxy-2-ethylphenyl)piperidin-4-yl)piperazin-1-yl)ethyl)-3-ethyl-2-oxo-2,3-dihydro-1H-benzo[d]imidazol-1-yl)piperidine-2,6-dione], for which the DC50 was found to be 3.86 nM in assay [1], 2.48 nM in assay [2], 3.97 nM in assay [3] and 1.45 nM in assay [4]. Besides, the “Dmax (%) H1975 # 28 DTC” value in assay [2] is listed as 65.15%. The “H1975 #23 DC Dmax (%)” value in assay [4] is on record as 73.67%.
Regarding `CCc1ccc2c(P(C)(C)=O)c(Nc3nc(Nc4cc(CC)c(N5CCC(N6CCN(CCc7cc(F)c(C8CCC(=O)NC8=O)c(F)c7)CC6)CC5)cc4OC)ncc3Br)ccc2n1` (stereo not drawn) [Example 485, 3-(4-(2-(4-(1-(4-((5-bromo-4-((5-(dimethylphosphoryl)-2-ethylquinolin-6-yl)amino)pyrimidin-2-yl)amino)-2-ethyl-5-methoxyphenyl)piperidin-4-yl)piperazin-1-yl)ethyl)-2,6-difluorophenyl)piperidine-2,6-dione], the DC50 in assay [1] worked out at 26.9 nM; in assay [2], 2.78 nM; in assay [3] it was 35.1 nM; in assay [4] it was 10.4 nM. Moreover, the “Dmax (%) H1975 # 28 DTC” value in assay [2] worked out at 70.65%. In addition, the “H1975 #23 DC Dmax (%)” value in assay [4] is reported as 82.7%.
In the case of `CCOc1cc(N2CCC(N3CCN(CCc4cccc5c4oc(=O)n5C4CCC(=O)NC4=O)CC3)CC2)c(CC)cc1Nc1ncc(Br)c(Nc2ccc3c(=O)n(CC)ncc3c2P(C)(C)=O)n1` (stereo not drawn) [Example 455, 3-(7-(2-(4-(1-(4-((5-bromo-4-((5-(dimethylphosphoryl)-2-ethyl-1-oxo-1,2-dihydrophthalazin-6-yl)amino)pyrimidin-2-yl)amino)-5-ethoxy-2-ethylphenyl)piperidin-4-y)piperazin-1-yl)ethyl)-2-oxobenzo[d]oxazol-3(2H)-yl)piperidine-2,6-dione], the half-maximal degradation concentration (DC50) worked out at 3.83 nM in assay [1], 0.47 nM in assay [2], 121 nM in assay [3] and 2.31 nM in assay [4]. In addition, the “Dmax (%) BaF3-LTC” value in assay [1] (setting [5]) was 87.13%. For the same molecule, the “Dmax (%) H1975 # 28 DTC” value in assay [2] is 79.19%. Moreover, the “BaF3 LC Dmax (%)” value in assay [3] (setting [6]) stood at 77.76%. Further, the “H1975 #23 DC Dmax (%)” value in assay [4] was 77.73%.
For `CCc1cc(Nc2ncc(Br)c(Nc3ccc4nc(C)ccc4c3P(C)(C)=O)n2)c(OC)cc1N1CCC(N2CCN(CCc3cccc4c3C(C)(C)C(=O)N4C3CCC(=O)NC3=O)CC2)CC1` (stereo not drawn) [Example 514, 3-(4-(2-(4-(1-(4-((5-bromo-4-((5-(dimethylphosphoryl)-2-methylquinolin-6-yl)amino)pyrimidin-2-yl)amino)-2-ethyl-5-methoxyphenyl)piperidin-4-yl)piperazin-1-yl)ethyl)-3,3-dimethyl-2-oxoindolin-1-yl)piperidine-2,6-dione], the DC50 was 3.51 nM in assay [1], 0.771 nM in assay [2], 3.51 nM in assay [3] and 1.83 nM in assay [4]. Further, the Dmax is 94.3% in assay [1] (setting [5]) and 94% in assay [3] (setting [6]). For the same molecule, the “Dmax (%) H1975 # 28 DTC” value in assay [2] stood at 66.48%. In addition, in assay [4], the “H1975 #23 DC Dmax (%)” value was 76.66%.
In the case of `CCOc1cc(N2CCC(N3CCN(CCc4cc(F)c(F)c5c4oc(=O)n5C4CCC(=O)NC4=O)CC3)CC2)c(CC)cc1Nc1ncc(Br)c(Nc2ccc3nc(CC)ccc3c2P(C)(C)=O)n1` (stereo not drawn) [Example 474, 3-(7-(2-(4-(1-(4-((5-bromo-4-((5-(dimethylphosphoryl)-2-ethylquinolin-6-yl)amino)pyrimidin-2-yl)amino)-5-ethoxy-2-ethylphenyl)piperidin-4-yl)piperazin-1-yl)ethyl)-4,5-difluoro-2-oxobenzo[d]oxazol-3(2H)-yl)piperidine-2,6-dione], the DC50 in assay [1] is 12 nM; in assay [2], 1.15 nM; in assay [3] it was 30.4 nM; in assay [4], 2.65 nM. The Dmax in assay [1] (setting [5]) was 79.2%; in assay [3] (setting [6]) it was 81.1%. Also, the “Dmax (%) H1975 # 28 DTC” value in assay [2] is listed as 73.43%. In addition, the “H1975 #23 DC Dmax (%)” value in assay [4] is 68.97%.
